What was measured:
surinam grass = experiment: Test B pre/postemergence surinam grass; assay type: in vivo, Brachiaria decumbens
Outline: (§1)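 Herbicidal effect was estimated by eye on a ten-point control scale after plants spent twelve to sixteen days in a greenhouse following soil or foliar treatment. Foliar sprays targeted plants at one to four leaves; all doses were formulated in a non-phytotoxic solvent with surfactant.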

velvetleaf = experiment: Test B pre/postemergence velvetleaf; assay type: in vivo, Abutilon theophrasti
Outline: as §1

wheat = experiment: Test B pre/postemergence wheat; assay type: in vivo, Triticum aestivum
Outline: as §1

blackgrass = experiment: Test B pre/postemergence blackgrass; assay type: in vivo, Alopecurus myosuroides
Outline: as §1

purple nutsedge = experiment: Test B pre/postemergence purple nutsedge; assay type: in vivo, Cyperus rotundus
Outline: as §1

rape = experiment: Test B pre/postemergence rape; assay type: in vivo, Brassica napus
Outline: as §1

giant foxtail = experiment: Test B pre/postemergence giant foxtail; assay type: in vivo, Setaria faberii
Outline: as §1

corn = experiment: Test B pre/postemergence corn; assay type: in vivo, Zea mays
Outline: as §1

crabgrass = experiment: Test B pre/postemergence crabgrass; assay type: in vivo, Digitaria sanguinalis
Outline: as §1

duck salad = experiment: Test B flood test duck salad; assay type: in vivo, Heteranthera limosa
Outline: (§2)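 Plants were grown to the 2-leaf stage before treatment with test chemical, then held in a greenhouse for twelve to sixteen days. Injury was visually rated against untreated controls on a 0–10 scale, where 0 is no effect and 10 is complete control.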

rice = experiment: Test B flood test rice; assay type: in vivo, Oryza sativa
Outline: as §2

soybean = experiment: Test B pre/postemergence soybean; assay type: in vivo, Glycine max
Outline: as §1

sugar beet = experiment: Test B pre/postemergence sugar beet; assay type: in vivo, Beta vulgaris
Outline: as §1

wild oat = experiment: Test B pre/postemergence wild oat; assay type: in vivo, Avena fatua
Outline: as §1

pigweed = experiment: Test B pre/postemergence pigweed; assay type: in vivo, Amaranthus retroflexus
Outline: as §1

cocklebur = experiment: Test B pre/postemergence cocklebur; assay type: in vivo, Xanthium strumarium
Outline: as §1

smallflower flatsedge = experiment: Test B flood test smallflower flatsedge; assay type: in vivo, Cyperus difformis
Outline: as §2

bamyardgrass = experiment: Test B flood test barnyardgrass; assay type: in vivo, Echinochloa crus-galli
Outline: as §2

morningglory = experiment: Test B pre/postemergence morningglory; assay type: in vivo, Ipomoea hederacea
Outline: as §1

[1] = Postemergence, Rate 62 g/ha, scale of 0 to 10, 0 is no effect, 10 is complete control
[2] = Postemergence, Rate 125 g/ha, scale of 0 to 10 where 0 is no effect and 10 is complete control
[3] = Postemergence, Rate 250 g/ha, scale of 0 to 10, 0 is no effect, 10 is complete control
[4] = Postemergence, Rate 500 g/ha, scale of 0 to 10 where 0 is no effect and 10 is complete control
[5] = Preemergence, Rate 62 g/ha, scale 0 to 10 (0 no effect, 10 complete control)
[6] = Preemergence, Rate 125 g/ha, scale of 0 to 10 where 0 is no effect and 10 is complete control
[7] = Preemergence, Rate 500 g/ha, scale of 0 to 10 where 0 is no effect and 10 is complete control
[8] = Rate 62 g/ha, flood test species, Pre-emergence, visual evaluation after twelve to sixteen days
[9] = Rate 125 g/ha, under heading Pre-emergence, flood test species, visual evaluation after twelve to sixteen days
[10] = Rate 500 g/ha, Pre-emergence section of Table B, 0 to 10 scale (0 no effect, 10 complete control)

CCc1nc(C)c(C(C)n2c(=O)on(C(=O)N(c3ccc(F)cc3F)C(C)C)c2=O)s1 (stereo not shown) [Compound 589]
B. signalgrass plant response rating (surinam grass; [1]): 0
Plant response rating, B. signalgrass (surinam grass; [2]): 0
B. signalgrass plant response rating (surinam grass; [3]): 0
Plant response rating, B. signalgrass (surinam grass; [4]): 3
B. signalgrass plant response rating (surinam grass; [5]): 0
B. signalgrass plant response rating (surinam grass; [6]): 0
B. signalgrass plant response rating (0 to 10 scale, 0 is no effect, 10 is complete control) (surinam grass; Preemergence, Rate 250 g/ha): 0
B. signalgrass plant response rating (surinam grass; [7]): 0
Plant response rating, Velvetleaf (velvetleaf; [2]): 2
Velvetleaf plant response rating (velvetleaf; [3]): 5
Plant response rating, Velvetleaf (velvetleaf; [4]): 5
Velvetleaf plant response rating (velvetleaf; [5]): 0
Velvetleaf plant response rating (velvetleaf; [6]): 0
Velvetleaf plant response rating (velvetleaf; [7]): 0
Plant response rating, Wheat (wheat; [2]): 0
Wheat plant response rating (wheat; [3]): 0
Plant response rating, Wheat (wheat; [4]): 0
Wheat plant response rating (wheat; [5]): 0
Wheat plant response rating (wheat; [6]): 0
Wheat plant response rating (wheat; [7]): 0
Blackgrass plant response rating (blackgrass; [1]): 0
Plant response rating, Blackgrass (blackgrass; [2]): 0
Blackgrass plant response rating (blackgrass; [3]): 2
Plant response rating, Blackgrass (blackgrass; [4]): 3
Blackgrass plant response rating (blackgrass; [5]): 0
Blackgrass plant response rating (blackgrass; [6]): 0
Blackgrass plant response rating (0 to 10 scale) (blackgrass; Preemergence, Rate 250 g/ha): 0
Blackgrass plant response rating (blackgrass; [7]): 0
Nutsedge plant response rating (purple nutsedge; [1]): 0
Plant response rating, Nutsedge (purple nutsedge; [2]): 0
Nutsedge plant response rating (purple nutsedge; [5]): 0
Nutsedge plant response rating (purple nutsedge; [6]): 0
Nutsedge plant response rating (purple nutsedge; [7]): 9
Rape plant response rating (rape; [1]): 0
Plant response rating, Rape (rape; [2]): 0
Rape plant response rating (rape; [3]): 0
Plant response rating, Rape (rape; [4]): 2
Rape plant response rating (rape; [5]): 0
Rape plant response rating (rape; [6]): 0
Rape plant response rating (rape; [7]): 0
Giant foxtail plant response rating (giant foxtail; [1]): 0
Plant response rating, Giant foxtail (giant foxtail; [2]): 0
Giant foxtail plant response rating (giant foxtail; [3]): 0
Plant response rating, Giant foxtail (giant foxtail; [4]): 3
Giant foxtail plant response rating (giant foxtail; [5]): 3
Giant foxtail plant response rating (giant foxtail; [6]): 9
Giant foxtail plant response rating (giant foxtail; [7]): 10
Corn plant response rating (corn; [1]): 0
Plant response rating, Corn (corn; [2]): 0
Corn plant response rating (corn; [3]): 0
Plant response rating, Corn (corn; [4]): 0
Corn plant response rating (corn; [5]): 0
Corn plant response rating (corn; [6]): 0
Corn plant response rating (0 to 10 scale) (corn; Preemergence, Rate 250 g/ha): 0
Corn plant response rating (corn; [7]): 0
Crabgrass plant response rating (crabgrass; [1]): 0
Plant response rating, Crabgrass (crabgrass; [2]): 0
Crabgrass plant response rating (crabgrass; [3]): 1
Plant response rating, Crabgrass (crabgrass; [4]): 3
Crabgrass plant response rating (crabgrass; [5]): 0
Crabgrass plant response rating (crabgrass; [6]): 1
Crabgrass plant response rating (crabgrass; [7]): 9
Plant response rating, Ducksalad (0 to 10 scale, 0 is no effect, 10 is complete control) (duck salad; [8]): 0
Ducksalad plant response rating (0 to 10 scale, 0 is no effect, 10 is complete control) (duck salad; [9]): 0
Ducksalad plant response rating (duck salad; [10]): 0
Plant response rating, Rice (0 to 10 scale, 0 is no effect, 10 is complete control) (rice; [8]): 0
Rice plant response rating (0 to 10 scale, 0 is no effect, 10 is complete control) (rice; [9]): 0
Rice plant response rating (rice; [10]): 0
Plant response rating, Soybean (soybean; [2]): 3
Soybean plant response rating (soybean; [3]): 3
Plant response rating, Soybean (soybean; [4]): 3
Soybean plant response rating (soybean; [5]): 0
Soybean plant response rating (soybean; [6]): 0
Soybean plant response rating (soybean; [7]): 0
Plant response rating, Sugarbeets (sugar beet; [2]): 0
Sugarbeets plant response rating (sugar beet; [3]): 0
Plant response rating, Sugarbeets (sugar beet; [4]): 0
Sugarbeets plant response rating (sugar beet; [5]): 0
Sugarbeets plant response rating (sugar beet; [6]): 0
Sugarbeets plant response rating (sugar beet; [7]): 0
Plant response rating, Wild oats (wild oat; [2]): 0
Wild oats plant response rating (wild oat; [3]): 0
Wild oats plant response rating (wild oat; [5]): 0
Wild oats plant response rating (wild oat; [6]): 0
Wild oats plant response rating (wild oat; [7]): 0
Plant response rating, Redroot pigweed (pigweed; [2]): 0
Redroot pigweed plant response rating (pigweed; [3]): 2
Plant response rating, Redroot pigweed (pigweed; [4]): 2
Redroot pigweed plant response rating (pigweed; [5]): 0
Redroot pigweed plant response rating (pigweed; [6]): 0
Redroot pigweed plant response rating (pigweed; [7]): 0
Cocklebur plant response rating (cocklebur; [1]): 0
Plant response rating, Cocklebur (cocklebur; [2]): 0
Cocklebur plant response rating (cocklebur; [3]): 0
Plant response rating, Cocklebur (cocklebur; [4]): 0
Cocklebur plant response rating (cocklebur; [5]): 0
Cocklebur plant response rating (cocklebur; [6]): 0
Cocklebur plant response rating (0 to 10 scale) (cocklebur; Preemergence, Rate 250 g/ha): 0
Cocklebur plant response rating (cocklebur; [7]): 0
Plant response rating, S. Flatsedge (0 to 10 scale, 0 is no effect, 10 is complete control) (smallflower flatsedge; [8]): 0
S. Flatsedge plant response rating (0 to 10 scale, 0 is no effect, 10 is complete control) (smallflower flatsedge; [9]): 0
S. Flatsedge plant response rating (smallflower flatsedge; [10]): 0
Plant response rating, Barnyardgrass (0 to 10 scale, 0 is no effect, 10 is complete control) (bamyardgrass; [8]): 0
Barnyardgrass plant response rating (0 to 10 scale, 0 is no effect, 10 is complete control) (bamyardgrass; [9]): 0
Barnyardgrass plant response rating (bamyardgrass; [10]): 0
Morningglory plant response rating (morningglory; [1]): 3
Plant response rating, Morningglory (morningglory; [2]): 3
Morningglory plant response rating (morningglory; [3]): 5
Plant response rating, Morningglory (morningglory; [4]): 6
Morningglory plant response rating (morningglory; [5]): 0
Morningglory plant response rating (morningglory; [6]): 0
Morningglory plant response rating (morningglory; [7]): 0

Source: US6737383B1, “Herbicidal oxadiazolidines” (priority 1999, dated 2004)
